Measurements as given in ChEMBL document CHEMBL1127947, “Synthesis and evaluation of n-substituted 1-(5-fluoro-2-pyrimidinyl)piperazine derivatives as potential anti-ischemic agents” (Bioorg Med Chem Lett, 1994).

Legend:
Rattus norvegicus [1] = assay: In vivo neuroprotective activity to block nitrogen (N2) lethality in male Dawley rats by ip administration at a dose of 40 mg/kg; assay type: functional; details: route intraperitoneal
[2] = target: T1, 5-hydroxytryptamine receptor 1A (Rattus norvegicus, UniProt P19327); assay: In vitro binding affinity towards serotonin 5-HT1A receptor by the displacement of [3H]8-OH-DPAT from rat hippocampus; assay type: tissue-based
T1 sequence (P19327 whole entry): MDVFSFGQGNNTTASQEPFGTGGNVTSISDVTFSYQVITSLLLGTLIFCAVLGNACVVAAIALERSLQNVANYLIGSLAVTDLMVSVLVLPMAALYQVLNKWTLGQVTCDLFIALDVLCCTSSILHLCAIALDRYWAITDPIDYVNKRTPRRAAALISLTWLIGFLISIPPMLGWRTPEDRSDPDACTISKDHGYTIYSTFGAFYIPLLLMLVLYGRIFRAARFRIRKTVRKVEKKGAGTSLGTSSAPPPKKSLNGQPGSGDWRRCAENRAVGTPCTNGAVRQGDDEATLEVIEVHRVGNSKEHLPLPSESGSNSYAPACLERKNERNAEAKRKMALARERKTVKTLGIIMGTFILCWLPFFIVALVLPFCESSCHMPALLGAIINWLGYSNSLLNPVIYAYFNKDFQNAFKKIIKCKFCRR

[3] = target: 5-hydroxytryptamine receptor 2A (Rattus norvegicus, UniProt P14842); assay: In vitro binding affinity towards serotonin 5-HT2A receptor by the displacement of [3H]spiperone from rat cortical membranes; assay type: cell membranes, Membrane
Rattus norvegicus [4] = assay: In vivo neuroprotective activity to block nitrogen (N2) lethality in male Dawley rats by ip administration at a dose of 20 mg/kg; assay type: functional; details: route intraperitoneal
Rattus norvegicus [5] = assay: In vivo neuroprotective activity to block nitrogen (N2) lethality in male Dawley rats by ip administration at a dose of 80 mg/kg; assay type: functional; details: route intraperitoneal
Rattus norvegicus [6] = assay: In vivo neuroprotective activity to block nitrogen (N2) lethality in male Dawley rats by ip administration at a dose of 50/100 mg/kg; assay type: functional
Rattus norvegicus [7] = assay: In vivo neuroprotective activity to block nitrogen (N2) lethality in male Dawley rats by ip administration at a dose of 100 mg/kg; assay type: functional; details: route intraperitoneal

Chain of 5-hydroxytryptamine receptor 2A (P14842 whole entry): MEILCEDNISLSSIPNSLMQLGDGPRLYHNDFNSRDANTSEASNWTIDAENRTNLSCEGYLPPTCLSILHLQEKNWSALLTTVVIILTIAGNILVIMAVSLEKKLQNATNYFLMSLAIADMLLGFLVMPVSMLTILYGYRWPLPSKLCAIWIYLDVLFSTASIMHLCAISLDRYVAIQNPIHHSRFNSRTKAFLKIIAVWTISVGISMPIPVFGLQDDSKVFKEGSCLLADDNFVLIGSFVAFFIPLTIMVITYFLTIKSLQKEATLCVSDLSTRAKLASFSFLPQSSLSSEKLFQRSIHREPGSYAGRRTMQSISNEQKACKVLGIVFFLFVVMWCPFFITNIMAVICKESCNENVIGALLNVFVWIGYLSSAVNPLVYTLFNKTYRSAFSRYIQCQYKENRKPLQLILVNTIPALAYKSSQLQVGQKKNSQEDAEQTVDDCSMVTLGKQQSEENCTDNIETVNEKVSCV

Row | SMILES | Protection (Rattus norvegicus [1]) [%] | IC50 [2] [nM] | IC50 [3] [nM] | other results
1 | Fc1ccc(OCCCN2CCN(c3ncc(F)cn3)CC2)cc1 | 25 | 145 | 141 | 
2 | Fc1cnc(N2CCN(CCCCc3ccc(F)c4ccccc34)CC2)nc1 |  | 414 | 590 | Protection (Rattus norvegicus [4]): 100%
3 | Fc1cnc(N2CCN(CCCCC3CCCCC3)CC2)nc1 |  | 315 |  | Protection (Rattus norvegicus [5]): 75%
4 | Fc1ccc(CCCCN2CCN(c3ncc(F)cn3)CC2)cc1 | 75 | 71 | 212 | 
5 | OC(CCCN1CCN(c2ncc(F)cn2)CC1)C1CCCCC1 (configuration not stated) | 100 | 30 |  | 
6 | O=S(=O)(NC(CCCN1CCN(c2ncc(F)cn2)CC1)c1ccc(F)c2ccccc12)c1ccc(F)cc1 (configuration not stated) | 38 |  |  | 
7 | O=C(OC(CCCN1CCN(c2ncc(F)cn2)CC1)c1ccc(F)cc1)c1ccccc1 (configuration not stated) |  | 581 |  | Protection (Rattus norvegicus [5]): 63%
8 | NC(CCCN1CCN(c2ncc(F)cn2)CC1)C1CCCCC1 (configuration not stated) |  | 257 |  | Protection (Rattus norvegicus [4]): 50%
9 | O=S(=O)(NC(CCCN1CCN(c2ncc(F)cn2)CC1)C1CCCCC1)c1ccc(F)cc1 (configuration not stated) |  |  | 760 | Protection (Rattus norvegicus [4]): 50%
10 | OC(CCCN1CCN(c2ncc(F)cn2)CC1)c1ccc(F)cc1 (configuration not stated) [BMY-14802] |  |  | 1700 | Protection (Rattus norvegicus [6]): 63%
11 | O=S(=O)(CCCN1CCN(c2ncc(F)cn2)CC1)c1ccc(F)cc1 | 25 | 461 |  | 
12 | O=S(=O)(NC(CCCN1CCN(c2ncc(F)cn2)CC1)c1ccc(F)cc1)c1ccc(F)cc1 (configuration not stated) |  | 1810 | 3400 | Protection (Rattus norvegicus [5]): 100%
13 | OC(CCCN1CCN(c2ncc(F)cn2)CC1)c1ccc(F)c2ccccc12 (configuration not stated) |  | 562 | 1010 | Protection (Rattus norvegicus [7]): 100%
14 | CC(=O)NC(CCCN1CCN(c2ncc(F)cn2)CC1)c1ccc(F)cc1 (configuration not stated) | 13 | 289 |  | 
15 | O=C(NC(CCCN1CCN(c2ncc(F)cn2)CC1)C1CCCCC1)c1ccc(F)cc1 (configuration not stated) |  |  | 760 | Protection (Rattus norvegicus [4]): 50%
16 | CC(=O)OC(CCCN1CCN(c2ncc(F)cn2)CC1)c1ccc(F)cc1 (configuration not stated) |  | 46 | 504 | Protection (Rattus norvegicus [5]): 100%
17 | Fc1ccc(SCCCN2CCN(c3ncc(F)cn3)CC2)cc1 | 13 | 129 |  | 
18 | NC(CCCN1CCN(c2ncc(F)cn2)CC1)c1ccc(F)c2ccccc12 (configuration not stated) | 38 | 345 |  | 
19 | O=C(NC(CCCN1CCN(c2ncc(F)cn2)CC1)c1ccc(F)cc1)c1ccc(F)cc1 (configuration not stated) | 88 | 106 | 468 | 
20 | OC(CCCN1CCN(c2ncc(F)cn2)CC1)(c1ccc(F)cc1)C1CCCCC1 (configuration not stated) | 75 | 50 | 336 | 
